According to patent publication US9193722B2, “Tri-cyclic pyrazolopyridine kinase inhibitors” (Vertex Pharmaceuticals Incorporated, priority 2008, dated 2015):

Columns and labels:
Format in all cases: biochemical
PKC theta kinase = PKC theta kinase (Homo sapiens, UniProt Q04759); assay: PKC theta kinase inhibition, coupled-enzyme (NADH absorbance) assay, Ki; details: 240 μM ATP, 18 nM PKC theta kinase, 30° C.
In short: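 Enzyme and compound equilibrated 10 min at 30 °C before reaction in HEPES pH 7.5 buffer with MgCl2, NaCl, EDTA and Brij. Activity tracked as NADH loss at 340 nm through a coupled system. Initial-rate data fitted by non-linear regression to give Ki.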

PKC delta kinase = PKC delta kinase (Homo sapiens, UniProt Q05655); assay: PKC delta kinase inhibition, coupled-enzyme (NADH absorbance) assay, Ki; details: 150 μM ATP, 46 nM PKC delta kinase, 30° C.; read-out: Ki PKC delta
PKC delta kinase, sequence (Q05655 whole entry): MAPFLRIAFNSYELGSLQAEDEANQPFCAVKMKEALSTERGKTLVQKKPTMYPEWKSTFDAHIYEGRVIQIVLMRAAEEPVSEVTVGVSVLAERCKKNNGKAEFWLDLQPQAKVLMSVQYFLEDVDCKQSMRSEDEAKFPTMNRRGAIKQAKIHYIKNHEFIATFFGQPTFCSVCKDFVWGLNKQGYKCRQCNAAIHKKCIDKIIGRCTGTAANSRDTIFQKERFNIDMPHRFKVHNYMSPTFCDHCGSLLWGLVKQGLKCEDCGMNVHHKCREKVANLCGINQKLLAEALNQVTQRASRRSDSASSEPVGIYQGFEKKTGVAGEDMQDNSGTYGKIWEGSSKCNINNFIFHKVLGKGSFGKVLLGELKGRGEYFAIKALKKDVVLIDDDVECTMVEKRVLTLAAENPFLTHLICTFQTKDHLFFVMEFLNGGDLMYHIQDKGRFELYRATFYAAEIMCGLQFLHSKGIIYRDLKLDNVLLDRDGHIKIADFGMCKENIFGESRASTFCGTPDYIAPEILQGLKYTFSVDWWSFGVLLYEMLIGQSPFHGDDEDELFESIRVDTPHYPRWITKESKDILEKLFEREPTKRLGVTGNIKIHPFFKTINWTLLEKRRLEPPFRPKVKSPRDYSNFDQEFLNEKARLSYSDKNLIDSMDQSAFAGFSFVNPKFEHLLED
In short: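 Enzyme and compound pre-equilibrated 10 min at 30° C before adding ATP to 150 μM final. Buffer: HEPES pH 7.5 (100 mM), 10 mM MgCl2, 25 mM NaCl, 0.1 mM EDTA, 0.01% Brij.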

PKC alpha kinase = PKC alpha kinase (Homo sapiens, UniProt P17252); assay: PKC alpha kinase inhibition, coupled-enzyme (NADH absorbance) assay, Ki; details: 130 μM ATP, 4.5 nM PKC alpha kinase, 30° C.
In short: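 Ki derived by non-linear regression of initial rates from a coupled assay tracking NADH absorbance at 340 nm over 15 min at 30 °C. ATP was 130 μM final after a 10 min compound–enzyme preincubation in HEPES pH 7.5 buffer with MgCl2, CaCl2, NaCl, EDTA and Brij.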

PKC theta kinase, sequence (Q04759 whole entry): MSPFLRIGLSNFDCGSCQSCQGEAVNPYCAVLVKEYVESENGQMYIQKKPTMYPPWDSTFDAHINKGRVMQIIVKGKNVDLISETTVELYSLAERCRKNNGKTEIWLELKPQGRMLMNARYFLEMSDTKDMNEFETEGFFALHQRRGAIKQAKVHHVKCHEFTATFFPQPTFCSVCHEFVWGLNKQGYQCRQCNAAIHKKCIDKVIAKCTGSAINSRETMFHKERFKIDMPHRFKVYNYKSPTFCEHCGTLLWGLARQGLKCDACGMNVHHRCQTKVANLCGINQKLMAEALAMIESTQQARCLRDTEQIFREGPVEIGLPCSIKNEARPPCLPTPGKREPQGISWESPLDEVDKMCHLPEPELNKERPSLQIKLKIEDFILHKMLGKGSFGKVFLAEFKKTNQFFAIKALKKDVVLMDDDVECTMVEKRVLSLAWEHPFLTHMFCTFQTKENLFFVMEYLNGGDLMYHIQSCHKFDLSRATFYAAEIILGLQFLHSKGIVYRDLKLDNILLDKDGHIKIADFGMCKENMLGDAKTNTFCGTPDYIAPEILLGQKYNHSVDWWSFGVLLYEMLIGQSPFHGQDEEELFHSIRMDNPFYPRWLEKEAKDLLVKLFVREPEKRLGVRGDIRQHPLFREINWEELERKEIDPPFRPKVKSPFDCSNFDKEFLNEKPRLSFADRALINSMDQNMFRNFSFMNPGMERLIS

Ki (PKC theta kinase) | Ki (PKC delta kinase) | Ki (PKC alpha kinase) | Structure (SMILES)
> 0.7 µM | > 1.25 µM | > 1.25 µM | CC(C)C[C@H]1CN(c2ccc(C(F)(F)F)c(-c3n[nH]c4ncccc34)n2)CC(F)(F)CN1 [Compound 222]
< 0.05 µM | < 0.5 µM | > 1.25 µM | CC(C)(O)C1CN(c2cccc(-c3n[nH]c4ncccc34)n2)CCN1 (stereo not drawn) [Compound 105]
< 0.5 µM | < 0.5 µM | > 1.25 µM | CC1(C)CN(c2ccc(C(F)(F)F)c(-c3n[nH]c4ncccc34)n2)CCN1 [Compound 80]
> 0.7 µM | > 1.25 µM | > 1.25 µM | Fc1ccc(N2CCc3[nH]ncc3C2)nc1-c1n[nH]c2ncccc12 [Compound 298]
< 0.5 µM | > 2 µM | > 1.25 µM | CC(C)(C)[C@H]1CN(c2ccc(C(F)(F)F)c(-c3n[nH]c4ncccc34)n2)CCN1 [Compound 77]
< 0.05 µM | < 0.5 µM | < 0.5 µM | NC1CCN(c2ccc(C(F)(F)F)c(-c3n[nH]c4ncccc34)n2)CC12CCCC2 (stereo not drawn) [Compound 464]
> 0.7 µM | > 1.25 µM | > 1.25 µM | CC1CN(c2ccc(C(F)(F)F)c(-c3n[nH]c4ncccc34)n2)CC(C2(O)CCC2)N1 (stereo not drawn) [Compound 261]
< 2.8 µM | > 2 µM | > 1.25 µM | NC1CN(c2cccc(-c3n[nH]c4ncccc34)n2)C1 [Compound 63]
< 0.5 µM | > 2 µM | > 1.25 µM | FC(F)(F)c1ccc(N2CCNC(C(F)(F)F)C2)nc1-c1n[nH]c2ncccc12 (stereo not drawn) [Compound 65]
> 0.7 µM | > 1.25 µM | > 1.25 µM | CCC[C@H]1CN(c2ccc(C(F)(F)F)c(-c3n[nH]c4ncccc34)n2)C[C@@H]1N [Compound 341]
< 0.001 µM | < 0.05 µM | < 2.8 µM | CC(F)(F)C(C)(O)C1CN(c2ccc(F)c(-c3n[nH]c4ncccc34)n2)CCN1 (stereo not drawn) [Compound 283]
< 2.8 µM | > 2 µM | > 1.25 µM | CC(C)C[C@H]1CN(c2cccc(-c3n[nH]c4ncccc34)n2)C[C@H](C)N1 [Compound 10]
< 0.05 µM | < 2.8 µM | > 1.25 µM | CC(C)C[C@@H]1C[C@@H](N)CN(c2ccc(F)c(-c3n[nH]c4ncccc34)n2)C1 [Compound 367]
< 0.5 µM | > 1.25 µM | > 1.25 µM | CC(C)C[C@H]1CN(c2cccc(-c3n[nH]c4ncccc34)n2)CC(F)(F)CN1 [Compound 225]
> 0.7 µM | > 1.25 µM | > 1.25 µM | NC[C@@H]1CCCN1c1ccc(C(F)(F)F)c(-c2n[nH]c3ncccc23)n1 [Compound 356]
< 0.05 µM | > 1.25 µM | > 1.25 µM | CC(C)C(N)[C@@H]1CCCN(c2ccc(F)c(-c3n[nH]c4ncccc34)n2)C1 (stereo partly drawn) [Compound 281]
< 0.5 µM | < 2.8 µM | > 1.25 µM | CC(C)C[C@H]1CC(F)(c2cccc(-c3n[nH]c4ncccc34)n2)CCN1 (stereo partly drawn) [Compound 146]
> 0.7 µM | > 2 µM | > 1.25 µM | C=Cc1ccc(N2CCN[C@@H](CC(C)C)C2)nc1-c1n[nH]c2ncccc12 [Compound 51]
> 0.7 µM | > 2 µM | > 1.25 µM | Cc1cc(-c2n[nH]c3ncccc23)nc(N2CCNCC2)c1 [Compound 93]
< 2.8 µM | > 1.25 µM | > 1.25 µM | Fc1ccc(N2CC3CCNCC3C2)nc1-c1n[nH]c2ncccc12 (stereo not drawn) [Compound 309]
< 0.5 µM | > 1.25 µM | > 1.25 µM | COc1ccccc1C1CN(c2ccc(C(F)(F)F)c(-c3n[nH]c4ncccc34)n2)CCN1 (stereo not drawn) [Compound 114]
< 0.05 µM | < 2.8 µM | > 1.25 µM | c1ccc(C[C@H]2CN(c3cccc(-c4n[nH]c5ncccc45)n3)CCN2)cc1 [Compound 37]
< 0.5 µM | > 1.25 µM | > 1.25 µM | CC(F)(F)CC1CN(c2ccc(C(F)(F)F)c(-c3n[nH]c4ncccc34)n2)CCN1 (stereo not drawn) [Compound 119]
< 0.05 µM | < 0.5 µM | < 2.8 µM | CCC(C)(C)C(N)C1CCCN(c2ccc(F)c(-c3n[nH]c4ncccc34)n2)C1 (stereo not drawn) [Compound 378]
< 0.5 µM | > 1.25 µM | > 1.25 µM | CNC(=O)CC1CN(c2ccc(C(F)(F)F)c(-c3n[nH]c4ncccc34)n2)CCN1 (stereo not drawn) [Compound 210]
> 0.7 µM | > 1.25 µM | > 1.25 µM | CNC1CCN(c2ccc(C(F)(F)F)c(-c3n[nH]c4ncccc34)n2)CC1 [Compound 359]

Ki (PKC theta kinase) | Ki (PKC delta kinase) | Ki (PKC alpha kinase) | Structure (SMILES)
> 0.7 µM | > 1.25 µM | > 1.25 µM | O=C1CN(c2ccc(F)c(-c3n[nH]c4ncccc34)n2)CCN1 [Compound 255]
< 0.05 µM | > 1.25 µM | > 1.25 µM | CC(C)CC1CN(c2ccc(C(F)(F)F)c(-c3n[nH]c4ncccc34)n2)CCC1CN (stereo not drawn) [Compound 350]
< 0.5 µM | > 1.25 µM | > 1.25 µM | CC(C)C1(C)OC(=O)N2CCN(c3ccc(F)c(-c4n[nH]c5ncccc45)n3)CC21 (stereo not drawn) [Compound 439]
< 0.05 µM | < 0.5 µM | < 2.8 µM | Fc1ccc(N2CCNC(C3CC3)C2)nc1-c1n[nH]c2ncccc12 (stereo not drawn) [Compound 220]
< 0.5 µM | > 1.25 µM | > 1.25 µM | Fc1ccc(N2CCCC(C3CCCN3)C2)nc1-c1n[nH]c2ncccc12 (stereo not drawn) [Compound 314]
< 0.5 µM | > 2 µM | < 0.5 µM | COc1cccc(C2CN(c3cccc(-c4n[nH]c5ncccc45)n3)CCN2)c1 (stereo not drawn) [Compound 35]
< 0.5 µM | < 2.8 µM | > 1.25 µM | CC(C)(C)[C@H]1CN(c2ccc(Cl)c(-c3n[nH]c4ncccc34)n2)CCN1 [Compound 78]
> 0.7 µM | > 1.25 µM | > 1.25 µM | CC(C)C[C@H]1CC(O)(c2cccc(-c3n[nH]c4ncccc34)n2)CCN1 (stereo partly drawn) [Compound 111]
< 0.5 µM | < 2.8 µM | > 1.25 µM | CC(C)C[C@H]1CN(c2ccc(-c3ccccc3)c(-c3n[nH]c4ncccc34)n2)CCN1 [Compound 49]
< 0.05 µM | < 0.5 µM | > 1.25 µM | CC(C)(F)C(C)(O)C1CN(c2ccc(F)c(-c3n[nH]c4ncccc34)n2)CCN1 (stereo not drawn) [Compound 250]
< 0.5 µM | > 2 µM | > 1.25 µM | CN1CCN(c2cccc(-c3n[nH]c4ncccc34)n2)CC1 [Compound 26]
< 0.05 µM | < 0.05 µM | < 0.5 µM | CC(C)C[C@@H]1CN(c2cccc(-c3n[nH]c4ncccc34)n2)CC[C@@H]1N [Compound 169]
< 0.5 µM | > 1.25 µM | > 1.25 µM | CC(O)(c1ccccc1)C1CN(c2ccc(F)c(-c3n[nH]c4ncccc34)n2)CCN1 (stereo not drawn) [Compound 322]
< 0.5 µM | < 0.5 µM | < 2.8 µM | NC1CCCN(c2cccc(-c3n[nH]c4ncccc34)n2)C1 (stereo not drawn) [Compound 68]
< 2.8 µM | < 2.8 µM | > 1.25 µM | Cc1cc(N2CCNCC2)nc(-c2n[nH]c3ncccc23)c1Cl [Compound 95]
< 0.05 µM | < 0.5 µM | < 2.8 µM | CC(C)C[C@H]1CN(c2cncc(-c3n[nH]c4ncccc34)n2)CCN1 [Compound 39, (S)-3-(6-(3-isobutylpiperazin-1-yl)pyrazin-2-yl)-1H-pyrazolo[3,4-b]pyridine]
< 0.05 µM | < 0.5 µM | < 0.5 µM | CC(C)C[C@H]1CN(c2ccc(Cl)c(-c3n[nH]c4ncccc34)n2)CC[C@H]1N [Compound 149]
> 0.7 µM | > 1.25 µM | > 1.25 µM | CC(C)CC1(C)C=CCN(c2ccc(C(F)(F)F)c(-c3n[nH]c4ncccc34)n2)C1 (stereo not drawn) [Compound 396]
< 0.5 µM | < 2.8 µM | > 1.25 µM | N[C@@H]1CCN(c2cccc(-c3n[nH]c4ncccc34)n2)C1 [Compound 33]
< 0.5 µM | > 1.25 µM | > 1.25 µM | CC(C)C(C)(O)C1CN(c2nc(-c3n[nH]c4ncccc34)c(F)cc2F)CCN1 (stereo not drawn) [Compound 444]
< 0.05 µM | < 2.8 µM | > 1.25 µM | CC(C)CC1(CN)CCCN(c2ccc(F)c(-c3n[nH]c4ncccc34)n2)C1 (stereo not drawn) [Compound 351]
> 0.7 µM | > 2 µM | < 2.8 µM | c1cc(-c2n[nH]c3ncccc23)nc(N2CCOCC2)c1 [Compound 27]
< 0.5 µM | > 1.25 µM | > 1.25 µM | CC(C)C[C@@H]1CN(c2ccc(C(F)(F)F)c(-c3n[nH]c4ncccc34)n2)CCN1 [Compound 193]
< 0.5 µM | > 2 µM | > 1.25 µM | CC(C)C[C@@H]1CC(F)(c2cccc(-c3n[nH]c4ncccc34)n2)CCN1 (stereo partly drawn) [Compound 99]
< 0.5 µM | > 1.25 µM | > 1.25 µM | Cc1cc([C@@H]2CN(c3ccc(F)c(-c4n[nH]c5ncccc45)n3)CCN2)[nH]n1 [Compound 260]
< 0.05 µM | < 0.5 µM | > 1.25 µM | CCC1(CN)CN(c2ccc(C(F)(F)F)c(-c3n[nH]c4ncccc34)n2)CCO1 (stereo not drawn) [Compound 403]
